Tests used:
TAMs = experiment: ex vivo differentiated TAMs treated with compound, marker expression by flow cytometry (FIG. 1b); type: cell-based, mouse; settings: BML-275 500 nM
Method: (§1) Immunosuppressive myeloid cell subsets resembling tumor-infiltrating subsets (g-MDSCs, m-MDSCs and TAMs) were differentiated from mouse bone marrow following published procedures using conditioning medium produced by LLC tumor cells stably expressing GMCSF and MCSF cells. g- and m-MDSCs were purified using the myeloid-derived suppressor cell isolation kit (Miltenyi Biotec, Bergisch, Germany) according to manufacturer's recommendations. MDSCs and TAMs were seeded with 500 nM BML-275 or 50 μM oleuropein and incubated for seven days.
(§2) Surface and intracellular staining were carried out as described before with the following fluorochrome-conjugated antibody clones: AF488 anti-CD49d (R1-2), PE anti-CD4 (GK1.5), APCanti-CD8(53-6.7), brilliant Violet 510™ anti-I-A/I-E (M5/114.15.2,PE/Cyanine7anti-Ly-6G (1A8), and APC anti-CD80 (16-10A1) (Biolegend), FITC anti-IL-12 (C15.6) and BV421 anti-IL-2 (JES6-5H4) (BD Bioscience), APC-Vio® 770 anti-Ly-6C (REA796), PE REAfinity™ anti-F4/80 (REA126), and APC anti-CD68 (REA886) (Miltenyi), PerCP-Cyanine5.5 Anti-Human/Mouse CD11b (M1/70) (Tonbo), and AF488 anti-IFNγ (Clone XMG1.2) (BD Pharmigen). For human cells, it was used the following fluorochrome-conjugated antibodies: PerCP-Cy5.5-anti-CD11b (integrina alfa M) (M1/70), Violet Fluor 450 anti-CD14 antibody (61D3) (Tonbo), PE anti-CD115 (CSF-1R) (9-4D2-1E4) (Biolegend), PE-Cy™7 anti-CD11c (Clone B-ly6) (BD Bioscience), and APC anti-HLA-DR (REA517) (Miltenyi).
(§3) Data were collected using the FACSCanto Flow Cytometer (BD Biosciences) for ex vivo and in vitro experiments at Navarrabiomed Biomedical Research Center and Cyroflex LX flow cytometer (Beckman Counter). Data were analyzed with Flowjo.

CD4 T cells [1] = experiment: mixed lymphocyte reaction (MLR) with TAMs as stimulator cells (FIG. 1c,d); type: cell-based, mouse; settings: treated TAMs as stimulators; 5 days
Method: (§4) MLR were carried out following standard procedures. Briefly, 100,000 MDSCs or TAMs from C57BL/6 mice were co-cultured in 96-well plates with 100,000 lymphocytes from BALB/c mice. Co-cultured cells were treated with 50 µM oleuropein and compared with control vehicle. After 5 days, T-lymphocyte activation, differentiation and proliferation were assessed by flow cytometry. T-cell activation and proliferation markers (Ki-67) and pro-inflammatory cytokine production (IL-2 and IFNγ) were evaluated by flow cytometry in CD4 and CD8 T cells as described before.
as §2, with “For human cells, it was used the following fluorochrome-conjugated antibodies: PerCP-Cy5.5-anti-CD11b (integrina alfa M) (M1/70), Violet Fluor 450 anti-CD14 antibody (61D3) (Tonbo), PE anti-CD115 (CSF-1R) (9-4D2-1E4) (Biolegend), PE-Cy™7 anti-CD11c (Clone B-ly6) (BD Bioscience), and APC anti-HLA-DR (REA517) (Miltenyi).” left out

MDSCs = experiment: ex vivo differentiated MDSCs treated with compound, marker expression by flow cytometry (FIG. 1a); type: cell-based, mouse; settings: BML-275 500 nM alone or with oleuropein 50 μM; MDSCs
Method: as §1, §2, §3

CD4 T cells [2] = experiment: mixed lymphocyte reaction (MLR) with MDSCs as stimulator cells (FIG. 1c,d); type: cell-based, mouse; settings: treated MDSCs as stimulators; 5 days
Method: as §4, §2

MDSC and CD3 T cells = settings: related art; cited from earlier work

| SMILES | CD68 (M1 marker) (TAMs; AMPK inhibition in TAMs) | cells co-expressing MHC-II and CD80 (TAMs; oleuropein 50 μM, TAMs) | CD4 T cell stimulation assessed by IFNγ and IL-2 production (CD4 T cells [1]) | expression of CD49d (MDSCs) | CD4 T cell stimulation assessed by IFNγ and IL-2 production (CD4 T cells [2]) | effect on MDSC and CD3 T cells (MDSC and CD3 T cells) |
| --- | --- | --- | --- | --- | --- | --- |
| c1cc(-c2cnn3cc(-c4ccc(OCCN5CCCCC5)cc4)cnc23)ccn1 [BML-275, reference compound] | increased | significant elevation | weaker | reduced | weaker | – |
| Nc1ccn([C@@H]2O[C@H](CO)[C@@H](O)C2(F)F)c(=O)n1 [gemcitabine] | – | – | – | – | – | simultaneously reduces the MDSC and the CD3 T cells |

From patent publication US20260364101A1, “OLEUROPEIN IN THE MANAGEMENT OF CANCER” (FUNDACIÓN MIGUEL SERVET, priority 2023, published 2026)
